Measurements as given in US9499553B2 (CHUGAI SEIYAKU KABUSHIKI KAISHA, priority 2013, dated 2016).

What follows are compounds tested against T1, human NaPi-IIb (Homo sapiens, UniProt O95436) (assay: Inhibitory effect on 33PO4 uptake into human NaPi-IIb-expressing CHO cells). Details: read-out: IC50 against 33PO4 uptake into human NaPi-IIb-expressing cells.
T1 construct: expressed in transfected cells
T1 sequence (O95436 1-690): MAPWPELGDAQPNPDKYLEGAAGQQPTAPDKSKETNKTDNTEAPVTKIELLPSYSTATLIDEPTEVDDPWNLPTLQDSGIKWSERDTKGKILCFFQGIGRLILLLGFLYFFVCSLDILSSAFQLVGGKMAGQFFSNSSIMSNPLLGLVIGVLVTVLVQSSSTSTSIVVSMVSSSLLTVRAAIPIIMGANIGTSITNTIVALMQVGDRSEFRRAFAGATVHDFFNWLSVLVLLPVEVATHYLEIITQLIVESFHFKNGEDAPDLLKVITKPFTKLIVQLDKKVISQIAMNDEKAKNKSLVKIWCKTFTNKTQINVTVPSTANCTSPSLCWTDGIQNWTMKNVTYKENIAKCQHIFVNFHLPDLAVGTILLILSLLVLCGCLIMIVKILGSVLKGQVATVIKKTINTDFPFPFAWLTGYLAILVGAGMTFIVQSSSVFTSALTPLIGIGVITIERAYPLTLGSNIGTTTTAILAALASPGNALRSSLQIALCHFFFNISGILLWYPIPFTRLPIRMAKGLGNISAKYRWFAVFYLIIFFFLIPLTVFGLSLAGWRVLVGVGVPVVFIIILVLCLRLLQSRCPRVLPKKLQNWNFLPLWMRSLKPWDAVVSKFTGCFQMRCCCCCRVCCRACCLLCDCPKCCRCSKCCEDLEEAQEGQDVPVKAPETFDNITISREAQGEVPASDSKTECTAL
Type: cell-based
Method in brief: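 Stable human NaPi-IIb CHO line (G418-selected), plated and cultured overnight; ³³PO4 added in buffer A and uptake run at room temperature. Cells washed with ice-cold buffer A, then uptake counted by liquid scintillation.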

| SMILES | IC50 [µM] |
| --- | --- |
| CN1N(Cc2ccc(OCCCCOC[C@H](O)CO)c(F)c2F)C(=O)C(C(=O)Nc2ccc(C(F)(F)F)cc2-c2ccc(C(F)(F)F)nc2)=C(O)C12CCCC2 [Example 387] | 10.7 |
| CN1N(Cc2ccc(OCCCCCOC[C@H](O)CO)c(F)c2F)C(=O)C(C(=O)Nc2ccc(C(F)(F)F)cc2-c2ccc(C(F)(F)F)nc2)=C(O)C12CCCC2 [Example 388] | 6.9 |
| CN1N(Cc2ccc(OCCCOC[C@H](O)CO)c(F)c2F)C(=O)C(C(=O)Nc2ccc(C(F)(F)F)cc2-c2cc(C(F)(F)F)ncn2)=C(O)C12CCC2 [Example 389] | 24.6 |
| CN1N(Cc2ccc(OCCCCOC[C@H](O)CO)c(F)c2F)C(=O)C(C(=O)Nc2ccc(C(F)(F)F)cc2-c2cc(C(F)(F)F)ncn2)=C(O)C12CCC2 [Example 390] | 7.8 |
| CN1N(Cc2ccc(OCCCCCOC[C@H](O)CO)c(F)c2F)C(=O)C(C(=O)Nc2ccc(C(F)(F)F)cc2-c2cc(C(F)(F)F)ncn2)=C(O)C12CCC2 [Example 391] | 7 |
| CN1N(Cc2ccc(OCCCOC[C@H](O)CO)c(F)c2F)C(=O)C(C(=O)Nc2ccc(C(F)(F)F)cc2-c2cc(C(F)(F)F)ncn2)=C(O)C12CCCC2 [Example 392] | 15.8 |
| CN1N(Cc2ccc(OCCCCOC[C@H](O)CO)c(F)c2F)C(=O)C(C(=O)Nc2ccc(C(F)(F)F)cc2-c2cc(C(F)(F)F)ncn2)=C(O)C12CCCC2 [Example 393] | 8.1 |
| CN1N(Cc2ccc(OCCCCCOC[C@H](O)CO)c(F)c2F)C(=O)C(C(=O)Nc2ccc(C(F)(F)F)cc2-c2cc(C(F)(F)F)ncn2)=C(O)C12CCCC2 [Example 394] | 6.7 |
| CN1N(Cc2ccc(OCCCOCCO)c(F)c2F)C(=O)C(C(=O)Nc2ccc(C(F)(F)F)cc2-c2cc(C(F)(F)F)ncn2)=C(O)C12CCCC2 [Example 395] | 15.2 |
| CN1N(Cc2ccc(OCCCCOCCO)c(F)c2F)C(=O)C(C(=O)Nc2ccc(C(F)(F)F)cc2-c2cc(C(F)(F)F)ncn2)=C(O)C12CCCC2 [Example 396] | 9.5 |
| CN1N(Cc2ccc(OCCCCCOCCO)c(F)c2F)C(=O)C(C(=O)Nc2ccc(C(F)(F)F)cc2-c2cc(C(F)(F)F)ncn2)=C(O)C12CCCC2 [Example 397] | 8.6 |
| CN1N(Cc2ccc(OCCCOCCCO)c(F)c2F)C(=O)C(C(=O)Nc2ccc(C(F)(F)F)cc2-c2cc(C(F)(F)F)ncn2)=C(O)C12CCCC2 [Example 398] | 9.9 |
| CN1N(Cc2ccc(OCCCCOCCCO)c(F)c2F)C(=O)C(C(=O)Nc2ccc(C(F)(F)F)cc2-c2cc(C(F)(F)F)ncn2)=C(O)C12CCCC2 [Example 399] | 7.8 |
| CN1N(Cc2ccc(OCCCCCOCCCO)c(F)c2F)C(=O)C(C(=O)Nc2ccc(C(F)(F)F)cc2-c2cc(C(F)(F)F)ncn2)=C(O)C12CCCC2 [Example 400] | 9.2 |
| COCCOCCOc1ccc(CN2C(=O)C(C(=O)Nc3ccc(C(F)(F)F)cc3-c3cc(C(F)(F)F)ncn3)=C(O)C3(CCC3)N2C)c(F)c1F [Example 401, 6-[[2,3-Difluoro-4-[2-(2-methoxyethoxy)ethoxy]phenyl]methyl]-9-hydroxy-5-methyl-7-oxo-N-[4-(trifluoromethyl)-2-[6-(trifluoromethyl)pyrimidin-4-yl]phenyl]-5,6-diazaspiro[3.5]non-8-ene-8-carboxamide] | 14.5 |
| CN(CCOc1ccc(CN2C(=O)C(C(=O)Nc3ccc(C(F)(F)F)cc3-c3cc(C(F)(F)F)ncn3)=C(O)C3(CCC3)N2C)c(F)c1F)C1COC1 [Example 402, 6-(2,3-Difluoro-4-(2-(methyl(oxetan-3-yl)amino)ethoxy)benzyl)-9-hydroxy-5-methyl-7-oxo-N-(4-(trifluoromethyl)-2-(6-(trifluoromethyl)pyrimidin-4-yl)phenyl)-5,6-diazaspiro[3.5]non-8-ene-8-carboxamide] | 12.8 |
| CN1N(Cc2ccc(OC3COC3)c(F)c2F)C(=O)C(C(=O)Nc2ccc(C(F)(F)F)cc2-c2cc(C(F)(F)F)ncn2)=C(O)C12CCC2 [Example 403, 6-(2,3-Difluoro-4-(oxetan-3-yloxy)benzyl)-9-hydroxy-5-methyl-7-oxo-N-(4-(trifluoromethyl)-2-(6-(trifluoromethyl)pyrimidin-4-yl)phenyl)-5,6-diazaspiro[3.5]non-8-ene-8-carboxamide] | 6.3 |
| COCCN1CCC[C@H]1COc1ccc(CN2C(=O)C(C(=O)Nc3ccc(C(F)(F)F)cc3-c3cc(C(F)(F)F)ncn3)=C(O)C3(CCC3)N2C)c(F)c1F [Example 404, 6-[[2,3-Difluoro-4-[[(2S)-1-(2-methoxyethyl)pyrrolidin-2-yl]methoxy]phenyl]methyl]-9-hydroxy-5-methyl-7-oxo-N-[4-(trifluoromethyl)-2-[6-(trifluoromethyl)pyrimidin-4-yl]phenyl]-5,6-diazaspiro[3.5]non-8-ene-8-carboxamide] | 10.1 |
| COCCN1CC[C@@H](Oc2ccc(CN3C(=O)C(C(=O)Nc4ccc(C(F)(F)F)cc4-c4cc(C(F)(F)F)ncn4)=C(O)C4(CCC4)N3C)c(F)c2F)C1 [Example 405, 6-[[2,3-Difluoro-4-[(3R)-1-(2-methoxyethyl)pyrrolidin-3-yl]oxyphenyl]methyl]-9-hydroxy-5-methyl-7-oxo-N-[4-(trifluoromethyl)-2-[6-(trifluoromethyl)pyrimidin-4-yl]phenyl]-5,6-diazaspiro[3.5]non-8-ene-8-carboxamide] | 27.7 |
| COCCN1CC(Oc2ccc(CN3C(=O)C(C(=O)Nc4ccc(C(F)(F)F)cc4-c4cc(C(F)(F)F)ncn4)=C(O)C4(CCC4)N3C)c(F)c2F)C1 [Example 406, 6-[[2,3-Difluoro-4-[1-(2-methoxyethyl)azetidin-3-yl]oxyphenyl]methyl]-9-hydroxy-5-methyl-7-oxo-N-[4-(trifluoromethyl)-2-[6-(trifluoromethyl)pyrimidin-4-yl]phenyl]-5,6-diazaspiro[3.5]non-8-ene-8-carboxamide] | 23.1 |
| CN1N(Cc2ccc(OC(C)(C)CN3CCOCC3)c(F)c2F)C(=O)C(C(=O)Nc2ccc(C(F)(F)F)cc2-c2cc(C(F)(F)F)ncn2)=C(O)C12CCC2 [Example 407, 6-[[2,3-Difluoro-4-(2-methyl-1-morpholin-4-ylpropan-2-yl)oxyphenyl]methyl]-9-hydroxy-5-methyl-7-oxo-N-[4-(trifluoromethyl)-2-[6-(trifluoromethyl)pyrimidin-4-yl]phenyl]-5,6-diazaspiro[3.5]non-8-ene-8-carboxamide] | 6.9 |
| CC(CN1CCOCC1)Oc1ccc(CN2C(=O)C(C(=O)Nc3ccc(C(F)(F)F)cc3-c3cc(C(F)(F)F)ncn3)=C(O)C3(CCC3)N2C)c(F)c1F (stereo not shown) [Example 408] | 14.6 |
| CN1CCC(Oc2ccc(CN3C(=O)C(C(=O)Nc4ccc(C(F)(F)F)cc4-c4cc(C(F)(F)F)ncn4)=C(O)C4(CCC4)N3C)c(F)c2F)CC1 [Example 411] | 12.8 |
| CN(CCOc1ccc(CN2C(=O)C(C(=O)Nc3ccc(C(F)(F)F)cc3-c3cc(C(F)(F)F)ncn3)=C(O)C3(CCCC3)N2C)c(F)c1F)C1COC1 [Example 412, 7-(2,3-Difluoro-4-(2-(methyl(oxetan-3-yl)amino)ethoxy)benzyl)-10-hydroxy-6-methyl-8-oxo-N-(4-(trifluoromethyl)-2-(6-(trifluoromethyl)pyrimidin-4-yl)phenyl)-6,7-diazaspiro[4.5]dec-9-ene-9-carboxamide] | 19 |
| CN1N(Cc2ccc(OCC3CCCO3)c(F)c2F)C(=O)C(C(=O)Nc2ccc(C(F)(F)F)cc2-c2cc(C(F)(F)F)ncn2)=C(O)C12CCCC2 (stereo not shown) [Example 413] | 11.3 |
| COCCN(C)CCNc1ccc(CN2C(=O)C(C(=O)Nc3ccc(C(F)(F)F)cc3-c3cc(C(F)(F)F)ncn3)=C(O)C3(CCCC3)N2C)c(F)c1F [Example 417, 7-(2,3-Difluoro-4-((2-((2-methoxyethyl)(methyl)amino)ethyl)amino)benzyl)-10-hydroxy-6-methyl-8-oxo-N-(4-(trifluoromethyl)-2-(6-(trifluoromethyl)pyrimidin-4-yl)phenyl)-6,7-diazaspiro[4.5]dec-9-ene-9-carboxamide] | 2.2 |
| CN1N(Cc2ccc(OCCOCCNCC(O)CO)c(F)c2F)C(=O)C(C(=O)Nc2ccc(C(F)(F)F)cc2-c2cc(C(F)(F)F)ncn2)=C(O)C12CCCC2 (stereo not shown) [Example 419, 7-[[4-[2-[2-(2,3-Dihydroxypropylamino)ethoxy]ethoxy]-2,3-difluorophenyl]methyl]-10-hydroxy-6-methyl-8-oxo-N-[4-(trifluoromethyl)-2-[6-(trifluoromethyl)pyrimidin-4-yl]phenyl]-6,7-diazaspiro[4.5]dec-9-ene-9-carboxamide] | 24.8 |
| CN(CCOCCOc1ccc(CN2C(=O)C(C(=O)Nc3ccc(C(F)(F)F)cc3-c3cc(C(F)(F)F)ncn3)=C(O)C3(CCCC3)N2C)c(F)c1F)C[C@H](O)[C@@H](O)[C@H](O)[C@H](O)CO [Example 420, 7-[[2,3-Difluoro-4-[2-[2-[methyl-[(2S,3R,4R,5R)-2,3,4,5,6-pentahydroxyhexyl]amino]ethoxy]ethoxy]phenyl]methyl]-10-hydroxy-6-methyl-8-oxo-N-[4-(trifluoromethyl)-2-[6-(trifluoromethyl)pyrimidin-4-yl]phenyl]-6,7-diazaspiro[4.5]dec-9-ene-9-carboxamide] | 18.6 |
